Values joined by “and” are separate entries in the source; they are usually repeats but may differ in a detail not shown here. Equal values may be shown once.
Experiments:
[1] = Phase 1 single ascending dose (SAD) and food effect pharmacokinetics; type: in vivo, human
Protocol: A two-part randomized, double-blind, placebo-controlled Phase 1 trial was conducted to assess the safety, tolerability, PK and PD of SRP-001 ascending doses (Quotient Sciences, Miami, FL USA). The study was conducted in accordance with the International Council for Harmonisation of Technical Requirements for Pharmaceuticals for Human Use (ICH), Guideline for GCP: Consolidated Guidance (E6), and applicable regulatory requirements(s) including clinical research guidelines established by the Basic Principles defined in the U.S. 21 CFR Parts 50, 56, and 312 and the principles enunciated in the Declaration of Helsinki (revised version Fortaleza 2013). The clinical protocol and informed consent form were reviewed and approved by an Institutional Review Board (IRB; Advarra IRB, 6100 Merriweather Drive, Suite 600, Columbia, MD 21044; Quotient Protocol No. SRP-101 and Quotient Sciences Study No. QSC205130; Quotient Sciences Miami, 3898 NW 7th Street, Miami, FL 33126.). The study comprises a SAD (Part 1) assessment that includes a food effect assessment that contributes data to inform a subsequent MAD (Part 2) dose-ranging study. Safety measurements were collected throughout the study for all subjects. Blood samples were collected to determine the PK parameters of SRP-001. ClinicalTrials.gov identifier: NCT05484414
Fasted and Fed Dosing: NHVs were dosed in the fasted state. The calorie/fat content of meals was not required to be controlled. Subjects were provided with a standardized menu. Subjects were provided with a light snack and then fasted from all food and drink (except water) for a minimum of 10 h on the day prior to dosing until approximately 4 h post-dose, at which time lunch was provided. An evening meal was provided at approximately 10 h post-dose/post-morning dose and an evening snack at approximately 14 h post-morning dose. Food effect was studied in the cohort receiving 900 mg SRP-001 in the fed state. A standard high-fat breakfast was given 30 min before dosing. On Day −1, these NHVs were provided with a light snack and fasted from all food and drink (except water) until the following morning, when they were provided with a standard high-fat breakfast. The breakfast had to be consumed over a maximum period of 25 min, with dosing occurring 30 min after the start of breakfast. Subjects were encouraged to eat their meal evenly over the 25 min period. It was acknowledged that some subjects took less time to eat, but dosing still occurred 30 min after the start of breakfast. Subjects had to consume at least 90% to be eligible for dosing. The start and stop time and percentage of the breakfast consumed were recorded in the source. Acceptable deviations for the pre-dose meal from the nominal time point were: 1) Pre-dose meal was provided within +5 min of the nominal time point, 2) Lunch was provided at approximately 4 h post-dose, 3) an evening meal at approximately 10 h post-dose, and 4) an evening snack at approximately 14 h post-dose. On subsequent days, meals were provided at appropriate times.
SRP-001 administration and PK/PD determination: Following a single administration of 300-2,000 mg SRP-001 oral suspension in the fasted state (and in cohort 4, 900 mg in the fed state), plasma concentrations of SRP-001 were observed from the first sampling timepoint of 1 h post-dose for all subjects.

healthy volunteers = assay: Phase 1 safety and tolerability; type: in vivo, human
Protocol: A randomized, double-blind, placebo-controlled Phase 1 trial (ClinicalTrials.gov identifier: NCT05484414) was conducted to assess the safety, tolerability, food effect, pharmacokinetics (PK), and pharmacodynamics (PD) of single and multiple ascending doses of SRP-001 (Quotient Sciences, Miami FL USA; FIG. 3H and Online Methods). The trial was conducted in accordance with the International Council for Harmonisation of Technical Requirements for Pharmaceuticals for Human Use (ICH), Guideline for GCP: Consolidated Guidance (E6), attained Institutional Review Board approval, and all applicable regulatory requirements for Phase 1, First in Human clinical trials. Safety measurements and plasma samples to determine PK parameters were collected throughout the study for all subjects and reviewed by the Safety Review Committee. PK stopping criteria were established to assure that systemic exposure to SRP-001 was less than or equal to the systemic exposure achieved at the NOAEL doses in the 28-day repeat-dose toxicology studies in the rat and dog. The trial's Safety Advisory Committee has approved the publication of the Phase 1 results.
A two-part randomized, double-blind, placebo-controlled Phase 1 trial was conducted to assess the safety, tolerability, PK and PD of SRP-001 ascending doses (Quotient Sciences, Miami, FL USA). […]
Safety—Holter (continuous ECG) Monitoring: NHVs also underwent continuous ECG Holter monitoring from at least 1 h prior to dosing until 24 h post-dose, and resulting measurements were monitored consistently. […] Where any scheduled rest times were missed, where there was less than a 10-min rest period, or where the final 5 min of a rest period was interrupted (for example, by subject movement or loss of leads), a protocol deviation was recorded, and the Holter provider was informed. Loss of leads or interruption of the recording outside of the scheduled rest times was not considered a protocol deviation but was recorded in the source. […]

Compound: CCN(CC)C(=O)c1ccccc1S(=O)(=O)NCC(=O)Nc1ccc(O)cc1 [SRP-001, N,N-diethyl-2-[[2-(4-hydroxyanilino)-2-oxo-ethyl]sulfamoyl]benzamide]
- AUC(0-48), geometric mean ([1]; 300 mg fasted): 1630 ng·h/mL
- AUC(0-inf), geometric mean ([1]; 300 mg fasted): 1630 ng·h/mL
- T1/2, geometric mean ([1]; 300 mg fasted): 2.38 h
- dose dependence of geometric mean Cmax and AUC(0-∞) ([1]; 300 mg to 2,000 mg): dose-proportional or super-proportional increase
- AUC(0-24), geometric mean ([1]; 600 mg fasted): 5660 ng·h/mL
- AUC(0-inf), geometric mean ([1]; 600 mg fasted): 5840 ng·h/mL
- Cmax, geometric mean ([1]; 600 mg fasted): 1740 ng/mL
- T1/2, geometric mean ([1]; 600 mg fasted): 5.0 h and 5.04 h
- AUC(0-24), geometric mean ([1]; 900 mg fasted): 6870 ng·h/mL
- AUC(0-inf), geometric mean ([1]; 900 mg fasted): 6970 ng·h/mL
- Cmax, geometric mean ([1]; 900 mg fasted): 2700 ng/mL
- T1/2, geometric mean ([1]; 900 mg fasted): 3.26 h
- AUC(0-24), geometric mean ([1]; 900 mg fed): 6250 ng·h/mL
- AUC(0-inf), geometric mean ([1]; 900 mg fed): 5910 ng·h/mL
- Cmax, geometric mean ([1]; 900 mg fed): 1200 ng/mL
- T1/2, geometric mean ([1]; 900 mg fed): 3.79 h
- relative bioavailability based on geometric mean AUC(0-24) ([1]; 900 mg fed vs fasted): 99.2%
- relative bioavailability based on geometric mean AUC(0-inf) ([1]; 900 mg fed vs fasted): 101%
- relative bioavailability based on geometric mean AUC(0-last) ([1]; 900 mg fed vs fasted): 98.4%
- relative bioavailability based on geometric mean Cmax ([1]; 900 mg fed vs fasted): 48.4%
- AUC(0-24), geometric mean ([1]; 2000 mg fasted): 18900 ng·h/mL
- AUC(0-inf), geometric mean ([1]; 2000 mg fasted): 19600 ng·h/mL
- Cmax, geometric mean ([1]; 2000 mg fasted): 4590 ng/mL
- T1/2, geometric mean ([1]; 2000 mg fasted): 5.96 h
- geometric mean AUC(0-24) as share of the exposure limits defined in the protocol ([1]; 2000 mg fasted): 31%
- geometric mean Cmax as share of the exposure limits defined in the protocol ([1]; 2000 mg fasted): 34%
- increase of geometric mean AUC(0-24) ([1]; dose from 300 to 600 mg): 3.5 fold
- increase of geometric mean Cmax ([1]; dose from 300 to 600 mg): 2.6 fold
- increase of geometric mean AUC(0-24) ([1]; dose from 600 to 900 mg): 1.2 fold
- increase of geometric mean Cmax ([1]; dose from 600 to 900 mg): 1.6 fold
- increase of geometric mean AUC(0-24) ([1]; dose from 900 to 2000 mg): 2.8 fold
- increase of geometric mean Cmax ([1]; dose from 900 to 2000 mg): 1.7 fold
- emesis (healthy volunteers; Phase 1 MAD cohort): no emesis was reported
- safety assessments (vital signs, ECG, laboratory tests) (healthy volunteers; SAD and MAD cohorts): revealed no abnormalities
- tolerability / serious adverse events (healthy volunteers; oral nanosuspension, SAD and MAD cohorts, 42 subjects on SRP-001): no serious adverse events (SAEs) reported

From patent US20250339391A1, “METHODS FOR EFFECTIVE MANAGEMENT OF PAIN” (South Rampart Pharma, Inc., priority 2024, published 2025)
